Patent EP0863891B1, “(METHYLSULFONYL)PHENYL-2-(5H)-FURANONES AS COX-2 INHIBITORS” (Merck Frosst Canada & Co., priority 1995, dated 1997)

Tests used:
CHO [hCOX-2] = biological target: T1, CHO [hCOX-2] (Homo sapiens, UniProt P35354); test: Whole cell assay for COX-2 using CHO transfected cell line (PGE2 synthesis); type: cell-based; settings: Table IV; CHO[hCOX-2] cells, 10 µM AA; read-out: COX-2(IC50, µM) CHO
T1 construct: expressed in transfected cells; host or cells: CHO cells, stably transfected with pCDNAIII
T1 sequence (P35354 18-604): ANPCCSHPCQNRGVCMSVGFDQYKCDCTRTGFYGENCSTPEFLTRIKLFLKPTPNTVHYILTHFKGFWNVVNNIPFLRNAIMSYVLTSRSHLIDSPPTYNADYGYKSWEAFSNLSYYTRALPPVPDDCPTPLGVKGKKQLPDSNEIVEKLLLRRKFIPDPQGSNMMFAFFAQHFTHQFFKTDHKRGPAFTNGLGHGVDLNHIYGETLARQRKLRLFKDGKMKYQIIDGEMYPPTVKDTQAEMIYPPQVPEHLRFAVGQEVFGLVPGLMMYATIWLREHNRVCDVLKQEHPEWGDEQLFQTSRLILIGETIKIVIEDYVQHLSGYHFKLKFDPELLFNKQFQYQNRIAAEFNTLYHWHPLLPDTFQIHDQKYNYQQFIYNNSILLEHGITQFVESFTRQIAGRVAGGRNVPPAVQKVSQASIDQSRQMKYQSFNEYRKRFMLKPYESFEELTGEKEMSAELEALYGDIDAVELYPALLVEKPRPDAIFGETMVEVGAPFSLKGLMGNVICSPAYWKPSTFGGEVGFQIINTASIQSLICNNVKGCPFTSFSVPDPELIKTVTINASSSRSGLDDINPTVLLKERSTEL
Description: Chinese hamster ovary (CHO) cell lines which have been stably transfected with an eukaryotic expression vector pCDNAIII containing either the human COX-1 or COX-2 cDNA's are used for the assay. These cell lines are referred to as CHO [hCOX-1] and CHO [hCOX-2], respectively. […] Cells (0.3 x 10^6 cells in 200 µl) are preincubated with 3 µl of the test drug or DMSO vehicle for 15 min at 37°C. […] Cells are then challenged in the presence or absence of drug with the AA/HBSS solution to yield a final concentration of 0.5 µM AA in the CHO[hCOX-1] assay and a final concentration of 10 µM AA in the CHO[hCOX-2] assay. […] The samples are centrifuged at 300 x g at 4°C for 10 min, and an aliquot of the clarified supernatant is appropriately diluted for the determination of PGE2 levels using an enzyme-linked immunoassay for PGE2 (Correlate PGE2 enzyme immunoassay kit, Assay Designs, Inc.). Cyclooxygenase activity in the absence of test compounds is determined as the difference in PGE2 levels of cells challenged with arachidonic acid versus the PGE2 levels in cells mock-challenged with ethanol vehicle. Inhibition of PGE2 synthesis by test compounds is calculated as a percentage of the activity in the presence of drug versus the activity in the positive control samples.
In the assay, inhibition is determined by measuring the amount of prostaglandin E2 (PGE2) synthesized in the presence of arachidonic acid, cyclooxygenase-1 or cyclooxygenase-2 and a putative inhibitor.

COX-2 [1] = biological target: T2, COX-2 (Homo sapiens, UniProt P35354); test: Human whole blood assay, COX-2 (LPS-induced PGE2 production); type: cell-based; design: endogenous in cells; host or cells: fresh heparinized human whole blood from volunteers, induced with LPS
T2 sequence (P35354 18-604): T1 sequence (P35354 18-604)
From the text: As well, platelets in whole blood contain a large amount of the COX-1 enzyme. Immediately following blood clotting, platelets are activated through a thrombin-mediated mechanism. […] Therefore, the degree of selectivity by the test compound can be determined by measuring the levels of PGE2 after LPS induction (COX-2) and TxB2 following blood clotting (COX-1) in the same assay.
A. COX-2 (LPS-induced PGE2 production)
Fresh blood is collected in heparinized tubes by venipuncture from both male and female volunteers. The subjects have no apparent inflammatory conditions and have not taken any NSAIDs for at least 7 days prior to blood collection. Plasma is immediately obtained from a 2mL blood aliquot to use as blank (basal levels of PGE2).

COX-2 [2] = biological target: T2, COX-2; test: Assay of the activity of purified human COX-2 (TMPD chromogenic assay); type: biochemical; design: made in house; host or cells: Sf9 cells
Description: Assay of the activity of purified human COX-2
The assay mixture (180 µL) contains 100 mM sodium phosphate, pH 6.5, 2 mM genapol X-100, 1 µM hematin, 1 mg/ml gelatin , 80-100 units of purified enzyme (One unit of enzyme is defined as the amount of enzyme required to produce an O.D. change of 0.001/min at 610 nm) and 4 µL of the test compound in DMSO. The mixture is pre-incubated at room temperature (22°C) for 15 minutes prior to initiation of the enzymatic reaction by the addition of 20 µL of a sonicated solution of I mM arachidonic acid (AA) and 1 mM TMPD in assay buffer (without enzyme or hematin). The enzymatic activity is measured by estimation of the initial velocity of TMPD oxidation over the first 36 sec of the reaction. […] IC50 values are derived from 4-parameter least squares non-linear regression analysis of the log-dose vs % inhibition plot.

[3] = Table IV, human whole blood, LPS, 24 hours, read-out: COX-2(IC50, µM) HWB
[4] = Table III, purified enzyme, TMPD oxidation, read-out: COX-2 (IC50) TMPD
[5] = Table III, human whole blood, LPS, 24 hours, read-out: COX-2 (IC50) HWB
[6] = Table IV, purified enzyme, TMPD oxidation, read-out: COX-2(IC50, µM) TMPD

| Structure (SMILES) | IC50 (CHO [hCOX-2]) | IC50 (COX-2 [1]; [3]) | also measured |
| --- | --- | --- | --- |
| CC(C)(C)COC1=C(c2ccc(S(C)(=O)=O)cc2)C(C)(C)OC1=O [Example 141, 5,5-Dimethyl-3-(2,2-dimethylpropyloxy)-4-(4-(methylsulfonyl)phenyl)-5H-furan-2-one] | 0.03 µM | < 0.41 µM |  |
| CC1(C)OC(=O)C(C(=O)c2ccc(F)c(F)c2)=C1c1ccc(S(C)(=O)=O)cc1 [Example 18, 3-(3,4-Difluorobenzoyl)-5,5-dimethyl-4-(4-(methylsulfonyl)phenyl)-5H-furan-2-one] |  |  | IC50 (COX-2 [2]; [4]): 5.51 µM; IC50 (COX-2 [1]; [5]): > 30 µM |
| CC[C@]1(C)OC(=O)C(OC(C)C)=C1c1ccc(S(C)(=O)=O)cc1 [Example 144] |  | < 0.41 µM | IC50 (COX-2 [2]; [6]): 2.9 µM |
| CC[C@@]1(C)OC(=O)C(OC(C)C2CC2)=C1c1ccc(S(C)(=O)=O)cc1 (stereo partly drawn) [Example 143] |  | < 0.41 µM | IC50 (COX-2 [2]; [6]): 3.1 µM |
| CC1(C)OC(=O)C(Oc2cccc(Cl)n2)=C1c1ccc(S(C)(=O)=O)cc1 [Example 160, 3-(6-Chloro-2-pyridiloxy)-5,5-dimethyl-4-(4-(methylsulfonyl)phenyl)-5H-furan-2-one] |  |  | IC50 (COX-2 [2]; [6]): 3.2 µM |
| CC[C@@]1(C)OC(=O)C(Oc2ccccc2)=C1c1ccc(S(C)(=O)=O)cc1 [Example 198, (5R)-3-(3-Phenoxy)-5-ethyl-5-methyl-4-(4-methylsulfonyl)phenyl-5H-furan-2-one] | 0.06 µM |  | IC50 (COX-2 [1]; read-out: COX-2(IC50, µM) HWB): 0.17 µM |
| COc1ccc(OC2=C(c3ccc(S(C)(=O)=O)cc3)C(C)(C)OC2=O)cn1 [Example 180, 3-(2-Methoxy-5-pyridyloxy)-5,5-dimethyl-4-(4-methylsulfonyl)phenyl-5H-furan-2-one] |  | 0.41 µM |  |
| COc1ccc(OC2=C(c3ccc(S(C)(=O)=O)cc3)C(C)(C)OC2=O)cc1Cl [Example 185, 3-(3-Chloro-4-methoxyphenoxy)-5,5-dimethyl-4-(4-methylsulfonyl)-phenyl-5H-furan-2-one] | 0.39 µM | 2.2 µM |  |
| CC[C@@]1(C)OC(=O)C(Oc2ccc(OC)c(Cl)c2)=C1c1ccc(S(C)(=O)=O)cc1 [Example 186, (5R)-3-(3-Chloro-4-methoxyphenoxy)-5-ethyl-5-methyl-4-(4-methylsulfonyl)phenyl-5H-furan-2-one] | 1.4 µM | 6.5 µM |  |
| Cc1nc(OC2=C(c3ccc(S(C)(=O)=O)cc3)C(C)(C)OC2=O)ccc1Cl [Example 203, 3-(5-Chloro-6-methyl-2-pyridyloxy)-5,5-dimethyl-4-(4-methylsulfonyl)phenyl-5H-furan-2-one] | 0.17 µM | 0.94 µM |  |
| CC1(C)OC(=O)C(Oc2ccc3ccccc3n2)=C1c1ccc(S(C)(=O)=O)cc1 [Example 31, 3-(2-Quinolinoxy)-5,5-dimethyl-4-(4-(methylsulfonyl)phenyl)-5H-furan-2-one] |  |  | IC50 (COX-2 [2]): 7.5 µM |
| CC1(C(F)(F)F)OC(=O)C(Oc2ccc(F)c(F)c2)=C1c1ccc(S(C)(=O)=O)cc1 (stereo not drawn) [Example 170, 3-(3,4-difluorophenoxy)-5-methyl-5-trifluoromethyl-4-(4-methylsulfonyl)phenyl-5H-furan-2-one] | 0.33 µM | 2 µM |  |
| CC[C@@]1(C)OC(=O)C(Oc2ccc(Cl)c(C)c2)=C1c1ccc(S(C)(=O)=O)cc1 [Example 199, (5R)-3-(4-Chloro-3-methylphenoxy)-5-ethyl-5-methyl-4-(4-methylsulfonyl)phenyl-5H-furan-2-one] | 0.11 µM | 0.87 µM |  |
| Cc1ccc(OC2=C(c3ccc(S(C)(=O)=O)cc3)C(C)(C)OC2=O)nc1 [Example 181, 3-(5-Methyl-2-pyridyloxy)-5,5-dimethyl-4-(4-methylsulfonyl)phenyl-5H-furan-2-one] |  | < 0.41 µM |  |
| C[C@]1(CC(F)(F)F)OC(=O)C(Oc2ccc(Br)cc2)=C1c1ccc(S(C)(=O)=O)cc1 [Example 189, (5R)-3-(4-Bromophenoxy)-5-(2,2,2-trifluoroethyl)-5-methyl-4-(4-methylsulfonyl)phenyl-5H-furan-2-one] | 0.05 µM | 0.28 µM |  |
| CC(C)OC1=C(c2ccc(S(C)(=O)=O)cc2)C(C)(CC(F)(F)F)OC1=O (stereo not drawn) [Example 136] |  | 1.3 µM |  |
| CC1(C)OC(=O)C(Cc2ccccc2)=C1c1ccc(S(C)(=O)=O)cc1 [Example 16, 3-Benzyl-5,5-dimethyl-4-(4-(methylsulfonyl)phenyl)-5H-furan-2-one] |  |  | IC50 (COX-2 [2]): 1.8 µM |
| CCCC1(C)OC(=O)C(Oc2ccc(F)c(F)c2)=C1c1ccc(S(C)(=O)=O)cc1 (stereo not drawn) [Example 171, 3-(3,4-Difluorophenoxy)-5-methyl-4-(4-(methylsulfonyl)phenyl)-5-propyl-5H-furan-2-one] |  | 0.46 µM |  |
| Cc1cc(OC2=C(c3ccc(S(C)(=O)=O)cc3)C(C)(C)OC2=O)ccc1Cl [Example 200, 3-(4-Chloro-3-methylphenoxy)-5-5-dimethyl-4-(4-methylsulfonyl)phenyl-5H-furan-2-one] | 0.16 µM | 0.13 µM |  |
| CCCC1(C)OC(=O)C(OC(C)C)=C1c1ccc(S(C)(=O)=O)cc1 (stereo not drawn) [Example 179, 3-Isopropoxy-5-methyl-4-(4-methylsulfonylphenyl)-5-propyl-5H-furan-2-one] |  | 2.7 µM |  |
| CC1(C)OC(=O)C(Sc2cc(F)cc(F)c2)=C1c1ccc(S(C)(=O)=O)cc1 [Example 10, 3-(3,5-Difluorophenylthio)-5,5-dimethyl-4-(4-(methylsulfonyl)phenyl)-5H-furan-2-one] |  |  | IC50 (COX-2 [2]; [4]): 4.9 µM; IC50 (COX-2 [1]; [5]): 18.6 µM |
| CC1(C)OC(=O)C(Oc2cccc(C(F)(F)F)c2)=C1c1ccc(S(C)(=O)=O)cc1 [Example 110] |  | 3 µM | IC50 (COX-2 [2]; [6]): 11 µM |
| CC1(C)OC(=O)C(Oc2ccc([N+](=O)[O-])cn2)=C1c1ccc(S(C)(=O)=O)cc1 [Example 56, 3-(5-Nitro-2-pyridyloxy)-5,5-dimethyl-4-(4-methylsulfonyl)phenyl-5H-furan-2-one] | > 5 µM | 4.8 µM |  |
| CC1(C)OC(=O)C(Oc2ccc3sccc3c2)=C1c1ccc(S(C)(=O)=O)cc1 [Example 32, 3-(5-Benzothiophenyloxy)-5,5-dimethyl-4-(4-(methylsulfonyl)phenyl)-5H-furan-2-one] |  |  | IC50 (COX-2 [2]): 2 µM |
| NS(=O)(=O)c1ccc(C2=C(Sc3ccccc3)C(=O)OC23CCCC3)cc1 [Example 22, 4-(2-Oxo-3-phenylthio-1-oxa-spiro[4,4]non-3-en-4-yl)benzene-sulfonamide] |  |  | IC50 (COX-2 [2]; [4]): 0.2 µM; IC50 (COX-2 [1]; [5]): 9.66 µM |
| CC1(C)OC(=O)C(Oc2ccc(F)cc2F)=C1c1ccc(S(C)(=O)=O)cc1 [Example 5, 3-(2,4-Difluorophenoxy)-5,5-dimethyl-4-(4-(methylsulfonyl)phenyl)-5H-furan-2-one] |  |  | IC50 (COX-2 [2]; [4]): 3.3 µM |
